Measurements: patent US10774046B2, “Inhibitors for the treatment of cancer and related methods” (UNIVERSITY OF LOUISVILLE RESEARCH FOUNDATION, INC., priority 2017, dated 2020)

How the values were obtained:
H460 cells [1] = experiment: cell cycle analysis by flow cytometry; format: cell-based, human
Description: To measure apoptosis, cells were stained with annexin V and propidium iodide and examined as previously described. For example, H460 cells were exposed to increasing concentrations of the PFKFB4 inhibitor (MPN-2), the PFKFB3 inhibitor PFK15 (Tocris) or both and viable cells were counted at 24, 48 and 72 hours. DMSO used as vehicle. For cell cycle experiments, cells were detached, washed with cold PBS and fixed in 70% ethanol (4° C., 30 minutes). The cells then were pelleted by centrifugation, resuspended in PBS containing PI and RNase A, incubated at 37° C. in the dark for 30 minutes and analyzed by flow cytometry (BD FACSCalibur). Data were analyzed using FlowJo software (TREE STAR Inc.). Results were calculated as the mean±SD of three experiments. The effects (Fa values) of the series of concentrations of MPN-2 and PFK-15 were examined individually and in combination at a constant ratio of 1:1.

[2] = system: panel of 97 protein kinases; experiment: KINOMEscan active-site dependent competition binding assay; conditions: 10 μM; data not shown
Description: The fructose-6-phosphate kinase activity of human recombinant PFKFB4 in the presence of DMSO±indicated 5MPN concentrations was assayed as previously described. The activity of 5MPN against 97 kinases was examined using a commercially available active-site dependent competition binding assay core service (KINOMEscanEDGE) that quantifies the capacity of test agents to compete with an immobilized, active-site directed ligand using a DNA-tagged kinase and immobilized ligand and compound. For example, enzyme inhibition was studied using an ADP-Glo assay. The effect of MPN-2 on the activity of recombinant human PFKFB4 enzyme was examined in an ADP-Glo assay (Promega), which measures ADP formed from a kinase reaction. ADP is converted into ATP, which is converted into light by a luciferase. PFKFB4 protein was exposed to MPN-2 at indicated concentrations in the presence of ATP and fructose-6-phosphate and following manufacturer's instructions, ADP-Glo and kinase detections reagents were added. The data are shown as the decrease in luminescence caused by MPN-2 relative to DMSO.

[3] = system: normal human bronchial epithelial (NHBE) cells; experiment: cell growth of normal cells, live cell count; format: cell-based; conditions: live cells at 48 hours
Excerpt: H460, H1299, H441, H522 and A549 non-small cell lung cancer (NSCLC), MDA-MB-231 (breast), LNCaP (prostatic) and HCT116 (colon) adenocarcinoma and Lewis lung carcinoma (LLC) cell lines were obtained from ATCC and used within 6 months of acquisition. PFKFB4^−/− ear pinna fibroblasts isolated from TamCre/loxP/PFKFB4^−/− mice were immortalized as described previously (Chesney J et al. Fructose-2,6-bisphosphate synthesis by 6-phosphofructo-2-kinase/fructose-2,6-bisphosphatase 4 (PFKFB4) is required for the glycolytic response to hypoxia and tumor growth. Oncotarget 2014 Aug. 30; 5(16):6670-86). Normal bronchial epithelial cells (NHBE) were obtained from Lonza and NHBE cells expressing telomerase, SV40 large T antigen and activated Ras (hT/LT/Ras) were a gift from Dr. B. J. Rollins, Dana Farber Cancer Institute. All cell lines were tested and found negative for mycoplasma (PCR Mycoplasma Detection Kit, ABM). Cell lines were grown in DMEM (A549, LNCaP, MDA-MB-231, LLC and PFKFB4^−/−), RPMI 1640 (H460, H1299, H441, H522) and McCoy's 5A media (HCT116) (all from Invitrogen) containing 10% fetal calf serum (Hyclone). […]
(§1) Cells were incubated in 20% trypan blue (Sigma) for 5 minutes. Cells excluding trypan blue were counted using a standard hemocytometer (Hausser Scientific) to determine total numbers of viable cells. Data are expressed as mean±SD of three experiments.

[4] = two-week oral toxicity study; format: in vivo; conditions: 120 mg/kg PO for two weeks
Description: Given the potential usefulness of oral administration in terms of cost and convenience, we elected to pursue this route in subsequent toxicity and efficacy pre-clinical studies. Initially, we dosed C57BL/6 mice with 120 mg/kg PO for two weeks and analyzed the effect on complete blood counts, electrolytes, hepatic and renal function, body mass and the gross and histological appearance of the brain, heart, lungs, liver, kidneys and spleen. […] Next, the effects of oral administration of 5MPN on intratumoral F2,6BP and glucose uptake by LLC xenografts was examined. There was a reduction in F2,6BP (FIG. 4E) and 2-[^18F]-fluoro-2-deoxyglucose uptake using positron emission tomography (FIG. 4F). It was confirmed that 5MPN caused a G1 arrest in LLC cells in vitro similar to H460 cells (FIG. 4G). The number of Ki67-positive cells was examined since Ki-67 expression correlated with later S and G2 phases of the cell cycle (SASAKI et al. “The cell cycle associated change of the Ki-67 reactive nuclear antigen expression” J Cell Physiol (1987) Vol. 133, No. 3, pp. 579-584).

H460 cells [5] = experiment: proliferation, viable cell count by trypan blue exclusion; format: cell-based, human
Description: as §1
H460 non-small cell lung cancer cells were plated in 24 well plates and exposed to increasing concentrations of the indicated inhibitors of Formula IV (FBR1-02 corresponds to
DMSO was used as vehicle. After 24, 48 and 72 hours of exposure, cells were detached and viable cells were counted by Trypan blue exclusion (representative counts at 48 hours shown).
Method: H460 cells were plated in 24 well plates and exposed to increasing concentrations of FB4-31 to FB4-36 and 5MPN. DMSO was used as a vehicle. After 24, 48 and 72 hours of exposure, cells were detached, and viable cells were counted by Trypan blue exclusion (representative counts at 72 hours shown).

cancer cells = experiment: anchorage independent growth as colonies in soft agar; format: cell-based; conditions: increasing concentrations
Description: Method: Cancer cells were plated in soft agar and the effects of increasing concentrations of Formula (VIII) on anchorage independent growth was examined. Briefly, a feeder layer of 0.6% agarose (Agar Noble, Becton Dickinson) in RPMI with 10% fetal bovine serum was plated in 6 cm plates containing vehicle (DMSO) or increasing concentrations of Formula (VIII). 1×10^4 cells were re-suspended in 0.3% agarose in RPMI/10% serum containing DMSO or increasing concentrations of Formula (VIII) and plated on top of the feeder layer. Cells were allowed to grow at 37° C. in 5% CO2 and agarose-containing media with DMSO+/−Formula (VIII) was replenished every 5 days until colonies became visible. Colonies were stained with MTT [3-(4,5-dimethylthiazol-2-yl)-2,5-diphenyl tetrazolium bromide] and counted in four random 1 cm^2 areas per plate under 40× magnification and enumerated.

[6] = H460 transfected with PFKFB4, 10 μM 5MPN, 24 hours

Row | Compound | cell cycle distribution (H460 cells [1]; H460, 10 μM 5MPN) | effect of overexpression of PFKFB4 on G1 arrest (H460 cells [1]; [6]) | inhibition of a panel of 97 protein kinases [2] | cell growth of normal cells [3] | signs of toxicity (blood counts, electrolytes, hepatic and renal function, body mass, histology, behavior) [4] | cell proliferation (H460 cells [5]; H460, 24-72 hours) | growth (H460 cells [5]; H460, over 48 hours) | effect of overexpression of PFKFB4 on anti-proliferative effect (H460 cells [5]; [6]) | anchorage independent growth (soft agar colonies) (cancer cells)
1 | COc1cccc2c(NCCCCCO[N+](=O)[O-])ccnc12 [5MPN, 5-[(8-methoxyquinolin-4-yl)amino]pentyl nitrate] | G1 arrest | reversed | not inhibited | virtually unaffected | no signs of toxicity | reduction in cell proliferation | dose-dependent reduction in growth | protected | –
2 | COc1cccc2c(NCCCCCNC(=O)C(F)(F)F)ccnc12 [Formula (VIII), 2,2,2-trifluoro-N-(5-((8-methoxyquinolin-4-yl)amino)pentyl)acetamide] | – | – | – | – | – | – | – | – | inhibited the growth of cancer cells as soft agar colonies
